Test results reported in patent US20070238661A1, “Substance P treatment for hepatitis C” (priority 2006, published 2007).

Experiments:
Hepatitis C virus = conditions: substance P aerosol combined with standard drug treatment of ribavirin and interferon alpha
[1] = test system: A/Hong Kong 8/68 influenza virus; parameters: species or system C57BL/6 mice; conditions: mouse, in vivo
lung protein alterations = assay: Acute formalin exposure lung injury model, lung protein analysis by two-dimensional gel electrophoresis; format: in vivo, Fischer 344 rats
Protocol: In a third system, we sought to determine if Sar^9, Met (O2)^11-substance P-treated Fischer 344 rats who were exposed to 67 mg/m^3 […] aerosolize formalin for 1.5 minutes would attenuate lung protein alterations. At approximately 42 minutes post-formalin or air exposure, rat lungs were removed for protein analysis. […] Among these 71 proteins were fibrinogen-related proteins.

Compound | deleterious effects of ribavirin and interferon alpha (loss of appetite, nausea, vomiting, weight loss) (Hepatitis C virus) | development of influenza symptoms (decreased body mass, fever, dehydration, nasal discharge) [1] | leukotriene B4 levels relative to A/Hong Kong 8/68 virus only mice [1] [%] | lung cell counts after broncho-alveolar lavage [1] | signs of lung injury (electron micrographs) [1] | number of lung proteins whose formalin-mediated abundance changes were attenuated (lung protein alterations; 67 mg/m^3 aerosolized formalin for 1.5 minutes, lungs removed about 42 minutes post-exposure, includes fibrinogen-related proteins) [proteins] | lung fibrinogen concentrations after acute formalin exposure (proteomic analyses) (lung protein alterations; acute lung injury model)
CSCC[C@H](NC(=O)[C@H](CC(C)C)NC(=O)CNC(=O)[C@H](Cc1ccccc1)NC(=O)[C@H](Cc1ccccc1)NC(=O)[C@H](CCC(N)=O)NC(=O)[C@H](CCC(N)=O)NC(=O)[C@@H]1CCCN1C(=O)[C@H](CCCCN)NC(=O)[C@@H]1CCCN1C(=O)[C@@H](N)CCCN=C(N)N)C(N)=O [substance P] | eliminated |  |  |  |  |  | 
Sar^9, Met (O2)^11-substance P |  | did not develop influenza symptoms | 33 | normal lung cell counts | did not observe any signs of lung injury | 71 | preserve fibrinogen concentrations
